Measurements taken from patent publication US8901118B2, “Compounds and methods for kinase modulation, and indications therefor” (Plexxikon Inc., priority 2010, dated 2014).

Assays:
CYP3A4(BQ) = CYP3A4(BQ) (Homo sapiens, UniProt P08684); assay: CYP3A4(BQ) inhibition; type: in vitro ADME; settings: CYP3A4, substrate BQ; read-out: Cyp IC50 3A4(BQ)
Summary of the method: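 After 30 min incubation at 37° C, plates were read on a Tecan Safire 2 at 409 ex/460 em, and IC50 values came from signal plotted against compound concentration. Enzyme and substrate were sourced from BD Biosciences. The cofactor mix held 1.3% NADPH Regeneration system Solution A, 1.04% Solution B, 5% acetonitrile and 0.05% DMSO.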

CYP2C19 = CYP2C19 (Homo sapiens, UniProt P33261); assay: CYP2C19 inhibition (fluorescent substrate CEC); type: in vitro ADME; settings: read-out: Cyp IC50 2C19
Sequence of CYP2C19 (P33261 whole entry): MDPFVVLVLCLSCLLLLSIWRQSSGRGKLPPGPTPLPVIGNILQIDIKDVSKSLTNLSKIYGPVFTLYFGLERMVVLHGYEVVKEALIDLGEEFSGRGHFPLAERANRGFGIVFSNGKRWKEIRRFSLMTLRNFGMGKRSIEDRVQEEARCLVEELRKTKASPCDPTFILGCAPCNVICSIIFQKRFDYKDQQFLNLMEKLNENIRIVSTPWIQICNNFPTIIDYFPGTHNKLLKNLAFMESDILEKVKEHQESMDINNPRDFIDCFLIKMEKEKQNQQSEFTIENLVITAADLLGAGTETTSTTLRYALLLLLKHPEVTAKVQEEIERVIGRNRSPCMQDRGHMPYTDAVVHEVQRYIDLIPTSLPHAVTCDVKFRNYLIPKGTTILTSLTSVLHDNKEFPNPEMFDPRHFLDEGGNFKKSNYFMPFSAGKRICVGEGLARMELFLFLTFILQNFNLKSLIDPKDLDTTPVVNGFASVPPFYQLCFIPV
Summary of the method: (§1)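 Test compound titrated 1:1 across ten concentrations; metabolite fluorescence measured after 37 °C incubation of 15 min (CYP1A2), 30 min (CYP2C19, CYP2D6) or 45 min (CYP2C9). IC50 from signal versus concentration.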

c-Kit kinase = c-Kit kinase (Homo sapiens, UniProt P10721); assay: c-Kit kinase biochemical activity assay (AlphaScreen, biotin-(E4Y)10 phosphorylation); settings: 100 μM ATP; read-out: Biochemical Inhibition IC50 Kit
Sequence of c-Kit kinase (P10721 26-976): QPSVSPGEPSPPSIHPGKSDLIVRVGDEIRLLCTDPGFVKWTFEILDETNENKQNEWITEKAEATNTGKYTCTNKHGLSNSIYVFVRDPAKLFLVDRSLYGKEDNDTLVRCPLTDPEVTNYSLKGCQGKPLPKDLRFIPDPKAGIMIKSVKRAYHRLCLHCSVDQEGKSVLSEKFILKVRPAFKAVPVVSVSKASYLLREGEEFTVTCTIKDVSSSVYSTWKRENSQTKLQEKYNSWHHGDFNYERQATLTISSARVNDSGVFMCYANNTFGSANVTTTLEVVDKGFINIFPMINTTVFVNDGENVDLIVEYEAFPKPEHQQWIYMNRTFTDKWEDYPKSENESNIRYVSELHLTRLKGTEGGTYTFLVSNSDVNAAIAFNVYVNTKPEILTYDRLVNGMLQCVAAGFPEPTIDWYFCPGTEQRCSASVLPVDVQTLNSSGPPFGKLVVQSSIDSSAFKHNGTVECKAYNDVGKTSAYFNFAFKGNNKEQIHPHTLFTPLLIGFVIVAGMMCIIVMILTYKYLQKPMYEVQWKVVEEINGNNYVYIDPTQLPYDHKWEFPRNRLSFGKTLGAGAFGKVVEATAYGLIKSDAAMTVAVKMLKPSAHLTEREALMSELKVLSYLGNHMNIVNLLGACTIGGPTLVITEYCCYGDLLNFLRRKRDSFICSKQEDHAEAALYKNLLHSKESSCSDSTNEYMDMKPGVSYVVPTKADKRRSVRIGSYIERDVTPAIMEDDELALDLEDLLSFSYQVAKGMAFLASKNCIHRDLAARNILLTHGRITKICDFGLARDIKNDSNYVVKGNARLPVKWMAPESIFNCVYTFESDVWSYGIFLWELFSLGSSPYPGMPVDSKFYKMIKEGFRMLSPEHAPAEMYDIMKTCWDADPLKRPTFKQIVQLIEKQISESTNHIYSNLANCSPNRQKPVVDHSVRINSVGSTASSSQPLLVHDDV
Summary of the method: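 AlphaScreen read-out (streptavidin donor, anti-phosphotyrosine PY20 acceptor beads, EDTA stop) of c-Kit activity. Reaction: 0.75 ng kinase, 100 µM ATP, 30 nM biotin-(E4Y)10, 25 mM HEPES pH 7.5, 2 mM MgCl2, 2 mM MnCl2, 5% DMSO, 1 h room temperature. IC50 derived over an 8-point, two-fold dilution series.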

TrkA kinase = TrkA kinase (Homo sapiens, UniProt P04629); assay: TrkA kinase biochemical activity assay (AlphaScreen); settings: 100 μM ATP; read-out: Biochemical Inhibition IC50 TrkA
Sequence of TrkA kinase (P04629 33-796): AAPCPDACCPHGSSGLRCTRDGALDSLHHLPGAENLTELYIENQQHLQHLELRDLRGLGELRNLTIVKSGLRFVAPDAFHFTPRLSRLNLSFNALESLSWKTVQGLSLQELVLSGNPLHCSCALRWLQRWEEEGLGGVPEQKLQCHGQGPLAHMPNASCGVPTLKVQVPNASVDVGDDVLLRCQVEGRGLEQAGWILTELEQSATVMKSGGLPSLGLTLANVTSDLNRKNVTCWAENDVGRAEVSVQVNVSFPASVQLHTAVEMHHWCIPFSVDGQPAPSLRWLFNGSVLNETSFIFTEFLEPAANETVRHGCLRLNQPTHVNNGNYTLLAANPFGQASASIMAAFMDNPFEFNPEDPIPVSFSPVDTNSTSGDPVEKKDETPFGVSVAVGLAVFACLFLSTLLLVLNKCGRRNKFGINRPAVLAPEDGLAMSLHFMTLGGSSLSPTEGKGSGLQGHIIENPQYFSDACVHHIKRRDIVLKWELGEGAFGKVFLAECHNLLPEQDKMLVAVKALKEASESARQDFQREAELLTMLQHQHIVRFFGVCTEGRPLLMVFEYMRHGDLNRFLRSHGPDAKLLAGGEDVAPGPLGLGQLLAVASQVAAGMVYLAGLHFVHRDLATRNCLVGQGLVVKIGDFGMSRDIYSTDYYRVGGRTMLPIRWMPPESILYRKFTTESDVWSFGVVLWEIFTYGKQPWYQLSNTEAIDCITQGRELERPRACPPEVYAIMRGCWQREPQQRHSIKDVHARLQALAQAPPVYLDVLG
Summary of the method: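 IC50 values come from AlphaScreen PY20/streptavidin bead signal versus compound concentration. Kinase reaction: 1 ng/well TrkA, 100 μM ATP, 30 nM biotin-(E4Y)10 substrate, Mn2+-containing Hepes buffer pH 7.5, 5% DMSO, 40 min, room temperature; TrkC assayed by the same approach.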

CYP2D6 = CYP2D6 (Homo sapiens, UniProt P10635); assay: CYP2D6 inhibition (fluorescent substrate AMMC); type: in vitro ADME; settings: read-out: Cyp IC50 2D6
Sequence of CYP2D6 (P10635 whole entry): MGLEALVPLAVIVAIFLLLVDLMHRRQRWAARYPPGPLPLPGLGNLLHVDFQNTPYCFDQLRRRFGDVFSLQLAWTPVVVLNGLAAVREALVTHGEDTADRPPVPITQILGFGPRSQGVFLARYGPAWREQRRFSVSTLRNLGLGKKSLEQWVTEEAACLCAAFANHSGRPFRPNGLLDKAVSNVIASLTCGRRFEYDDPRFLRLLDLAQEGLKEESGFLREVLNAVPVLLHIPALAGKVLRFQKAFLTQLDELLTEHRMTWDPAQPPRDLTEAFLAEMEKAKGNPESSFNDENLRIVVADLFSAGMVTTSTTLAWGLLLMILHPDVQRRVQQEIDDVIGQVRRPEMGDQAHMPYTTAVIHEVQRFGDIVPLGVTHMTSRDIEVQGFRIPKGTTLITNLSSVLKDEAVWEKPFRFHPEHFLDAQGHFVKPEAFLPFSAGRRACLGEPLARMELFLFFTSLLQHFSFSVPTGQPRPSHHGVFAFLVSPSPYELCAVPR
Summary of the method: as §1

Sequence of CYP3A4(BQ) (P08684 whole entry): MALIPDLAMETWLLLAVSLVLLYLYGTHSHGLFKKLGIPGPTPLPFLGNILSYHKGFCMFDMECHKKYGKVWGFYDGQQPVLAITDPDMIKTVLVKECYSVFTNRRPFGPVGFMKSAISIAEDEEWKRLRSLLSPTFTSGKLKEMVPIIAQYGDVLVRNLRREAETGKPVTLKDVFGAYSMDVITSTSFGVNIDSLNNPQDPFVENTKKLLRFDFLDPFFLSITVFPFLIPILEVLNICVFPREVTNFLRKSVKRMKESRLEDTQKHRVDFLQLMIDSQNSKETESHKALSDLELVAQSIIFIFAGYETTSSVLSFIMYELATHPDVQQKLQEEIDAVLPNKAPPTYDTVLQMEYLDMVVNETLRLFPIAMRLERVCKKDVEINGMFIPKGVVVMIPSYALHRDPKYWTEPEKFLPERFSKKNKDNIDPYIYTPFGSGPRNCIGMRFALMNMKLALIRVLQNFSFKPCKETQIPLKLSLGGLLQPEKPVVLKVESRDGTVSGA

Structure (SMILES) | IC50 (CYP3A4(BQ)) [µM] | IC50 (CYP2C19) [µM] | IC50 (c-Kit kinase) [µM] | IC50 (TrkA kinase) [µM] | IC50 (CYP2D6) [µM]
CNc1ncnc2[nH]cc(C(=O)c3ccc(Nc4ccc(C(F)(F)F)nc4)nc3F)c12 [Compound P-4092, [2-fluoro-6-[[6-(trifluoromethyl)-3-pyridyl]amino]-3-pyridyl]-[4-(methylamino)-7H-pyrrolo[2,3-d]pyrimidin-5-yl]methanone] | > 10 | < 5 | < 0.1 | < 0.01 | < 5
CCc1ccc(Nc2ccc(C(=O)c3c[nH]c4ncnc(NC5CCC(F)(F)CC5)c34)c(F)n2)cn1 [Compound P-4096, [4-[(4,4-difluorocyclohexyl)amino]-7H-pyrrolo[2,3-d]pyrimidin-5-yl]-[6-[(6-ethyl-3-pyridyl)amino]-2-fluoro-3-pyridyl]methanone] | 5 to 10 | < 5 | < 1 | < 0.1 | < 5
CCc1ccc(Nc2ccc(C(=O)c3c[nH]c4ncnc(N[C@@H](C)c5ccc(F)cc5)c34)c(F)n2)cn1 [Compound P-4097, [6-[(6-ethyl-3-pyridyl)amino]-2-fluoro-3-pyridyl]-[4-[[(1S)-1-(4-fluorophenyl)ethyl]amino]-7H-pyrrolo[2,3-d]pyrimidin-5-yl]methanone] | > 10 | < 5 | < 1 | < 0.1 | < 5
CCc1ccc(Nc2ccc(C(=O)c3c[nH]c4ncnc(NCCCOC)c34)c(F)n2)cn1 [Compound P-4098, [6-[(6-ethyl-3-pyridyl)amino]-2-fluoro-3-pyridyl]-[4-(3-methoxypropylamino)-7H-pyrrolo[2,3-d]pyrimidin-5-yl]methanone] | > 10 | < 5 | < 0.1 | < 0.01 | < 5
CCCCNc1ncnc2[nH]cc(C(=O)c3ccc(Nc4ccc(CC)nc4)nc3F)c12 [Compound P-4100, [4-(butylamino)-7H-pyrrolo[2,3-d]pyrimidin-5-yl]-[6-[(6-ethyl-3-pyridyl)amino]-2-fluoro-3-pyridyl]methanone] | > 10 | < 5 | < 0.1 | < 0.1 | < 5
COc1cncc(Nc2ccc(C(=O)c3c[nH]c4ncnc(NCC(F)(F)F)c34)c(F)n2)c1 [Compound P-4103, [2-fluoro-6-[(5-methoxy-3-pyridyl)amino]-3-pyridyl]-[4-(2,2,2-trifluoroethylamino)-7H-pyrrolo[2,3-d]pyrimidin-5-yl]methanone] | > 10 | > 10 | < 1 | < 0.1 | > 10
CCCNc1ncnc2[nH]cc(C(=O)c3ccc(Nc4cncc(OC)c4)nc3F)c12 [Compound P-4105, [2-fluoro-6-[(5-methoxy-3-pyridyl)amino]-3-pyridyl]-[4-(propylamino)-7H-pyrrolo[2,3-d]pyrimidin-5-yl]methanone] | > 10 | > 10 | > 1 | < 0.1 | > 10
COc1cncc(Nc2ccc(C(=O)c3c[nH]c4ncnc(NC(C)C)c34)c(F)n2)c1 [Compound P-4106, [2-fluoro-6-[(5-methoxy-3-pyridyl)amino]-3-pyridyl]-[4-(isopropylamino)-7H-pyrrolo[2,3-d]pyrimidin-5-yl]methanone] | > 10 | < 5 | < 1 | < 0.01 | < 5
COc1cncc(Nc2ccc(C(=O)c3c[nH]c4ncnc(NC5CC5)c34)c(F)n2)c1 [Compound P-4107, [4-(cyclopropylamino)-7H-pyrrolo[2,3-d]pyrimidin-5-yl]-[2-fluoro-6-[(5-methoxy-3-pyridyl)amino]-3-pyridyl]methanone] | > 10 | < 5 | < 0.1 | < 0.01 | < 5
CNc1ncnc2[nH]cc(C(=O)c3ccc(Nc4cncc(OC)c4)nc3F)c12 [Compound P-4108, [2-fluoro-6-[(5-methoxy-3-pyridyl)amino]-3-pyridyl]-[4-(methylamino)-7H-pyrrolo[2,3-d]pyrimidin-5-yl]methanone] | > 10 | < 5 | < 1 | < 0.1 | < 5
Cc1ccc(Nc2ccc(C(=O)c3c[nH]c4ncnc(NCC(F)(F)F)c34)c(F)n2)cn1 [Compound P-4112, [2-fluoro-6-[(6-methyl-3-pyridyl)amino]-3-pyridyl]-[4-(2,2,2-trifluoroethylamino)-7H-pyrrolo[2,3-d]pyrimidin-5-yl]methanone] | > 10 | < 5 | < 1 | < 0.1 | < 5

Continued, values first:

IC50 (CYP3A4(BQ)) [µM] | IC50 (CYP2C19) [µM] | IC50 (c-Kit kinase) [µM] | IC50 (TrkA kinase) [µM] | IC50 (CYP2D6) [µM] | Structure (SMILES)
> 10 | > 10 | < 0.1 | < 0.01 | > 10 | O=C(c1ccc(Nc2ccc(C3CC3)nc2)nc1F)c1c[nH]c2ncnc(NC3CC3)c12 [Compound P-4093, [4-(cyclopropylamino)-7H-pyrrolo[2,3-d]pyrimidin-5-yl]-[6-[(6-cyclopropyl-3-pyridyl)amino]-2-fluoro-3-pyridyl]methanone]
> 10 | < 5 | < 0.01 | < 0.01 | < 5 | CNc1ncnc2[nH]cc(C(=O)c3ccc(Nc4ccc(C5CC5)nc4)nc3F)c12 [Compound P-4094, [6-[(6-cyclopropyl-3-pyridyl)amino]-2-fluoro-3-pyridyl]-[4-(methylamino)-7H-pyrrolo[2,3-d]pyrimidin-5-yl]methanone]
> 10 | > 10 | < 0.1 | < 0.01 | > 10 | CCc1ccc(Nc2ccc(C(=O)c3c[nH]c4ncnc(NC5CCC5)c34)c(F)n2)cn1 [Compound P-4095, [4-(cyclobutylamino)-7H-pyrrolo[2,3-d]pyrimidin-5-yl]-[6-[(6-ethyl-3-pyridyl)amino]-2-fluoro-3-pyridyl]methanone]
< 5 | < 5 | < 0.1 | < 0.1 | < 5 | CCc1ccc(Nc2ccc(C(=O)c3c[nH]c4ncnc(NC5CCCC5)c34)c(F)n2)cn1 [Compound P-4099, [4-(cyclopentylamino)-7H-pyrrolo[2,3-d]pyrimidin-5-yl]-[6-[(6-ethyl-3-pyridyl)amino]-2-fluoro-3-pyridyl]methanone]
> 10 | 5 to 10 | < 1 | < 0.1 | > 10 | CC(C)Nc1ncnc2[nH]cc(C(=O)c3ccc(NC4CCCCC4)nc3F)c12 [Compound P-4101, [6-(cyclohexylamino)-2-fluoro-3-pyridyl]-[4-(isopropylamino)-7H-pyrrolo[2,3-d]pyrimidin-5-yl]methanone]
> 10 | < 5 | < 1 | < 0.1 | < 5 | CNc1ncnc2[nH]cc(C(=O)c3ccc(NC4CCCCC4)nc3F)c12 [Compound P-4102, [6-(cyclohexylamino)-2-fluoro-3-pyridyl]-[4-(methylamino)-7H-pyrrolo[2,3-d]pyrimidin-5-yl]methanone]
> 10 | 5 to 10 | < 1 | < 0.1 | > 10 | COc1cncc(Nc2ccc(C(=O)c3c[nH]c4ncnc(NC5CCCCC5)c34)c(F)n2)c1 [Compound P-4104, [4-(cyclohexylamino)-7H-pyrrolo[2,3-d]pyrimidin-5-yl]-[2-fluoro-6-[(5-methoxy-3-pyridyl)amino]-3-pyridyl]methanone]
> 10 | 5 to 10 | < 1 | < 0.1 | > 10 | CC(C)Nc1ncnc2[nH]cc(C(=O)c3ccc(NC4CCCCC4)nc3Cl)c12 [Compound P-4109, [2-chloro-6-(cyclohexylamino)-3-pyridyl]-[4-(isopropylamino)-7H-pyrrolo[2,3-d]pyrimidin-5-yl]methanone]
> 10 | < 5 | < 1 | < 1 | < 5 | CNc1ncnc2[nH]cc(C(=O)c3ccc(NC4CCCCC4)nc3Cl)c12 [Compound P-4110, [2-chloro-6-(cyclohexylamino)-3-pyridyl]-[4-(methylamino)-7H-pyrrolo[2,3-d]pyrimidin-5-yl]methanone]
5 to 10 | 5 to 10 | < 1 | < 0.1 | > 10 | Cc1ccc(Nc2ccc(C(=O)c3c[nH]c4ncnc(NC5CCCCC5)c34)c(F)n2)cn1 [Compound P-4111, [4-(cyclohexylamino)-7H-pyrrolo[2,3-d]pyrimidin-5-yl]-[2-fluoro-6-[(6-methyl-3-pyridyl)amino]-3-pyridyl]methanone]
